Reference: patent publication EP0471841A1, “SULFONAMIDE DERIVATIVE AND PHARMACEUTICAL COMPOSITION CONTAINING THE SAME” (Asahi Kasei Kogyo Kabushiki Kaisha, priority 1990, dated 1991)
Where a name gives a salt, the structure may show the parent alone.

What was measured:
[1] = tested on: tracheal specimens excised from guinea pigs; experiment: Inhibitory effect on PGF2α-induced contraction of tracheal specimens excised from guinea pigs (Magnus tube); assay type: cell-based; conditions: Cavia porcellus, dose required for relaxing PGF2α-induced contraction to 50 %; PGF2α final concentration: 1 µm; compounds used as hydrochloride; 3 specimens per group; read-out: PGF2α-induced contraction ED50
Method: (§1) The bronchial smooth muscle-relaxing action of the sulfonamide derivative of the present invention was evaluated by the effect on suppression of KCl-induced contraction and PGF2α-induced contraction of bronchial specimens excised from guinea pigs.
Tracheal specimens excised from male guinea pigs weighing 350 to 500 g (Hartley strain, Kuroda Junkei Dobutsu) were contracted in substantially the same manner as in Application Example 1 except that PGF2α (final concentration: 1 µm) was used instead of KCl. After the contraction of the tracheal specimens became stable, each of the compounds (hydrochloride) of the present invention was dissolved in distilled water or physiological saline, and the compound solution was cumulatively added into the Magnus tube in the same manner as in Application Example 1. The relaxing effect of each of the compounds of the present invention on the contracted specimens was evaluated and a dose-response curve was obtained. The dose required for relaxing PGF2α-induced contraction to 50 %, i.e., ED₅₀ was calculated form the dose-response curve. Of compounds 3, 4, 30, 31, 36, 38, 48, 54 and 55, which were imdividually used herein, compounds other than acid addition salts were used in the form of a hydrochloride which was obtained in the same manner as described in Example 61. For comparison, the same procedure as described above was repeated except that aminophylline, comparative compound (1) and comparative compound (2) were individually used instead of the compound of the present invention, to obtain an ED₅₀. The number of specimens in each group was 3.

trachea = experiment: Effect on trachea in vivo: inhibition of histamine-induced tracheal contraction (modified Konzett-Rössler method); conditions: Cavia porcellus, iv, 0.05 h; compound 1 mg/kg through the femoral vein, histamine 20 µg/kg through the femoral vein 3 minutes later; anesthetized male guinea pigs; compounds used as hydrochloride; 3 animals per group; read-out: Inhibition of tracheal con-traction
Text: Further, the inhibiting action of the compound of the present invention on the histamine-induced contraction of the trachea of a guinea pig was examined by in vivo experiment. As a result, the in vivo bronchodilation action was confirmed.
According to a modified method of Konzett-Rössler method [see J. Martinez et al, Bronchial Arterial Injections, vol. 33, 295, (1961); Masaaki Takai et al, Oyo Yakuri (Applied Pharmacology), vol. 17, p.345, (1979)], effect of the compounds of the present invention on trachea in vivo was examined. Of compounds 3, 4, 30, 31, 36, 38, 48, 54 and 55, which were used herein, compounds other than acid addition salts were individually subjected to testing in the form of a hydrochloride which was obtained in the same manner as described in Example 61. Urethane was intraperitoneally administered to male guinea pigs weighing 350 to 600 g (Hartley strain, Kuroda Junkei Dobutsu) in an amount of 1.5 g/kg of body weight to anesthetize the animals. Then, cannulae were inserted into the trachea and femoral vein of each animal under urethane anesthesia and fixed. The inserted tracheal cannula was connected to a respirator for small animal (model 1683, manufactured by Harvard Co., Ltd.) and a pneumotachometer (model MHF-1200, manufactured by Nihon Kohden Corp.) through a bottle containing water, the water surface of which was adjusted to a level which is 10 cm high from the bottom, and a respiratory volume was determined.
Each of the above-mentioned compounds of the present invention was administered to guinea pigs through the femoral vein in an amount of 1 mg/kg of body weight. After 3 minutes from the administration, histamine was administered to the same guinea pigs through the femoral vein in an amount of 20 µg/kg of body weight, to thereby induce contraction of trachea and the inhibition of the histamine-induced tracheal contraction by each of the above-described compounds of the present invention was determined. For comparison, the inhibition of histamine-induced tracheal contraction by each of aminophylline, comparative compound (1) and comparative compound (2) was determined in substantially the same manner as described above. As a solvent for each compound, physiological saline was used. The number of the guinea pigs tested in each group was 3.

[2] = tested on: tracheal specimens excised from guinea pigs; experiment: Inhibitory effect on KCl-induced contraction of tracheal specimens excised from guinea pigs (Magnus tube); assay type: cell-based; conditions: dose required for relaxing KCl-induced contraction to 50 %, final KCl concentration: 20 mM, 37 °C, compounds other than acid addition salts used as hydrochloride, 3 specimens per group, read-out: ED₅₀ Effect on KCl-induced contraction
Method: as §1
According to a method in which tracheal specimens excised from guinea pigs were used (Takagi and Ozawa, "Yakubutsugaku Jikken (Experiments in Pharmacology)", pp.100-102, 1960, published by Nanzando Japan; and Fujiwara and Shibata, "Yakurigaku Kiso Jikenho (Methods of Fundamental Experiments in Pharmacology)" pp.131-134, 1982, published by Kyourin, Japan), relaxing effect of sulfonamide derivatives of the present invention on bronchial smooth muscle was examined. Of compounds (1) to (69) shown herein, compounds other than acid addition salts were individually used in the form of a hydrochloride which was obtained by the same method as described in Example 61.
From male guinea pigs weighing 350 to 500 g (Hartley strain, Kuroda Junkei Dobutsu), tracheas were excised and each of the excised tracheal specimens was hung in 20 ml of a Magnus tube filled with Krebs-Henseleit solution under isotonic conditions and the solution temperature was kept at 37 °C. An aqueous KCl solution was dropwise added into the Magnus tube (final KCl concentration: 20 mM) to contract the tracheal specimen. After the KCl-induced contraction became stable, each of the compounds of the present invention was dissolved in distilled water or physiological saline, and the compound solution was cumulatively added into the Magnus tube. The relaxing effect of each of the compounds of the present invention on contracted tracheal specimens was evaluated and a dose-response curve was obtained.
A dose required for relaxing KCl-induced contraction to 50 %, i.e., ED₅₀ was calculated from the dose-response curve. For comparison, the same method as described above was repeated except that aminophylline was used, to thereby determine an ED₅₀. The number of tracheal specimens in each group was 3.

Row | Molecule | EC50 [1] | EC50 ([2]; Cavia porcellus) | inhibition in vivo at 1 mg/kg (trachea) | EC50 [2]
1 | Cn1c(=O)c2[nH]cnc2n(C)c1=O [Aminophylline, aminophylline, reference compound] | > 200 µM |  | 7% | 
2 | O=S(=O)(NCCN1CCCN(Cc2ccc3c(c2)OCO3)CC1)c1cccc2cnccc12 [(31), 1-(5-isoquinolinesulfonylaminoethyl)-4-(3,4-methylenedioxybenzyl)homopiperazine] | 31 µM | 13 µM |  | 
3 | O=S(=O)(NCCN1CCCN(Cc2ccc3c(c2)OCO3)CC1)c1ccc(Cl)c2ncccc12 [(38), 1-(8-chloro-5-quinolinesulfonylaminoethyl)-4-(3,4-methylenedioxybenzyl)homopiperazine] | 74 µM | 26 µM |  | 
4 | O=S(=O)(c1ccc(Cl)c2ncccc12)N1CCCNCC1 [(54), 1-(8-chloro-5-quinolinesulfonyl)homopiperazine] | 65 µM | 38 µM | 30% | 
5 | CCOc1ccc(S(=O)(=O)N2CCCNCC2)c2cccnc12 [(55), 1-(8-ethoxy-5-quinolinesulfonyl)homopiperazine] | 71 µM | 45 µM | 23% | 
6 | O=S(=O)(NCCNCc1ccc2c(c1)OCO2)c1cccc2ncccc12 [Compound (27), N-[2-(3,4-methylenedioxybenzylamino)ethyl]-5-quinolinesulfonamide] |  | 86 µM |  | 
7 | 1-(1-hydroxy-5-isoquinolinesulfonylaminoethyl)-3-(3,4-methylenedioxybenzyl)homopiperazine hydrochloride [(35)] |  |  |  | 18 µM
8 | CCOc1ccc(S(=O)(=O)N2CCNCC2)c2cccnc12 [(57), 1-(8-ethoxy-5-quinolinesulfonyl)piperazine] |  | 57 µM |  | 
9 | 1-(1-hydroxy-5-isoquinolinesulfonylaminoethyl) piperazine hydrochloride [(32)] |  |  |  | 27 µM
10 | CCOc1ccc(S(=O)(=O)NCCN2CCN(Cc3ccc(Cl)cc3)CC2)c2cccnc12 [(51), 1-(8-ethoxy-5-quinolinesulfonylaminoethyl)-4-(4-chlorobenzyl)piperazine] |  | 85 µM |  | 

The next lines start with results.

Row | EC50 [1] | EC50 ([2]; Cavia porcellus) | Molecule | inhibition in vivo at 1 mg/kg (trachea) | EC50 [2]
11 | 5 µM | 10 µM | O=S(=O)(NCCNCc1ccc2c(c1)OCO2)c1cccc2c(O)nccc12 [(4), N-[2-(3,4-methylenedioxybenzylamino)ethyl]-1-hydroxy-5-isoquinolinesulfonamide hydrochloride] | 25% | 
12 | 101 µM |  | CCCCCCN(CCN)S(=O)(=O)c1cccc2cnccc12 [Comparative compound (1), N-(2-aminoethyl)-N-hexyl-5-isoquinolinesulfonamide hydrochloride, reference compound] | 9% | 
13 | 93 µM |  | NC1CCCN(S(=O)(=O)c2cccc3cnccc23)C1 (stereo not shown) [Comparative compound (2), 1-(5-isoquinolinesulfonyl)-3-aminopiperidine hydrochloride, reference compound] | 12% | 
14 | 43 µM | 16 µM | O=S(=O)(NCCN1CCN(Cc2ccc3c(c2)OCO3)CC1)c1cccc2cnccc12 [(30), 1-(5-isoquinolinesulfonylaminoethyl)-4-(3,4-methylenedioxybenzyl)piperazine] |  | 
15 | 91 µM | 43 µM | O=S(=O)(NCCN1CCCNCC1)c1ccc(Cl)c2ncccc12 [(36), 1-(8-chloro-5-quinolinesulfonylaminoethyl)homopiperazine] |  | 
16 |  | 102 µM | CCOc1ccc(S(=O)(=O)NCCN2CCCN(CCc3ccc(OC)c(OC)c3)CC2)c2cccnc12 [(52), 1-(8-ethoxy-5-quinolinesulfonylaminoethyl)-4-(3,4-dioxyphenethyl)homopiperazine] |  | 
17 | 23 µM | 5.2 µM | O=S(=O)(NCCNCc1ccc2c(c1)OCO2)c1cccc2cnccc12 [(3), N-[2(3,4-methylenedioxybenzylamino)ethyl]-5-isoquinolinesulfonamide] | 36% | 
18 | 82 µM | 37 µM | CCOc1ccc(S(=O)(=O)NCCN2CCCN(Cc3ccc4c(c3)OCO4)CC2)c2cccnc12 [(48), 1-(8-ethoxy-5-quinolinesulfonylaminoethyl)-4-(3,4-methylenedioxybenzyl)homopiperazine] | 33% | 
19 |  | 91 µM | O=S(=O)(NCCN1CCCNCC1)c1cccc2ncccc12 [(44), 1-(5-quinolinesulfonylaminoethyl)homopiperazine] |  | 
20 |  | 84 µM | O=S(=O)(NCCN1CCCN(Cc2ccc3c(c2)OCO3)CC1)c1cccc2ncccc12 [(45), 1-(5-quinolinesulfonylaminoethyl)-4-(3,4-methylenedioxybenzyl)homopiperazine] |  | 
